# Patent US20040224981A1, “Antibacterial methods and compositions” (priority 2003, published 2004)
# Read-outs that look alike come from different tables or passages of the source.
# What was measured:
# [1] = system: E. faecium; experiment: MIC against E. faecium; type: cell-based; details: Enterococcus faecium, ATCC33667; Table 8; E. faecium ATCC 33667; read-out: MIC
# Description: (§1) MRSi compound 5 alone and in combination with mupirocin was tested recent clinical isolates of E. faecalis (n=28) and E. faecium (n=23). Both the acetate salt and mupirocinate salts of MRSi compound 5 maintained potent activity against vancomycin-susceptible and—resistant enterococci (Tables 8, 9, and 10).
# [2] = system: E. faecalis; experiment: MIC against E. faecalis; type: cell-based; details: Enterococcus faecalis, Table 8, read-out: MIC
# Description: The MRS inhibitor 4 alone and in combination with mupirocin (mupirocin salt and 1:1 combination) were tested against a collection of Gram-positive pathogens.
# as §1
# [3] = system: S. aureus; experiment: MIC against S. aureus strains and clinical isolates (broth microdilution); type: cell-based, Staphylococcus aureus
# Description: were tested against a collection of clinical isolates of S. aureus including strains that were multi-resistant to mupirocin and to other agents such as gentamicin and oxacillin.
# The acetate and mupirocin salts of the MRS inhibitor compound 5 were tested against a collection of both low and high-level mupirocin resistant clinical isolates of S. aureus (Table 6).
# The bacterial strains were tested for susceptibility to mupirocin and MRSi compound 2 using the broth microdilution method in accordance with NCCLS guideline to determine their MICs.
# Briefly, the MIC and checkerboard titration assays were performed with strains in microtiter trays with cation-supplemented Mueller-Hinton broth (Difco). Inocula were prepared by suspending growth from blood agar plates in sterile saline to a density equivalent to that of a 0.5 McFarland standard and were diluted […] to produce a final inoculum of 5×10^5 CFU/ml. The trays were incubated aerobically overnight. Standard quality control strains were included with each run. Fractional inhibitory concentrations (FICs) were calculated as the MIC of drug A or B in combination/MIC of drug A or B alone, and the FIC index was obtained by adding the two FICs. FIC indices were interpreted as synergistic if the values were ≦0.5, additive or indifferent if the values were >0.5 to 4, and antagonistic if the values were >4.0.
# [4] = Staphylococcus aureus, ATCC43300, S. aureus ATCC 43300 (ORSA), read-out: MIC
# [5] = Staphylococcus aureus, NRS 1 / VISA, S. aureus NRS1 (VISA), read-out: MIC
# [6] = Staphylococcus aureus, NRS107, S. aureus NRS107 (HL Mup rest.), read-out: MIC
# [7] = Staphylococcus aureus, S. aureus 10-420 (LL Mup. Rest.), read-out: MIC
# [8] = Staphylococcus aureus, S. aureus 14-354 (LL Mup. Rest.), read-out: MIC
# [9] = Staphylococcus aureus, S. aureus 25-670 (HL Mup. Rest.), read-out: MIC
# [10] = Staphylococcus aureus, S. aureus 31-1334 (LL Mup Rest.), read-out: MIC
# [11] = Staphylococcus aureus, S. aureus 36-1298 (LL Mup. Rest.), read-out: MIC
# [12] = Staphylococcus aureus, S. aureus 87-2797 (HL Mup. Rest.), read-out: MIC
# [13] = Staphylococcus aureus, S. aureus 87-2797 (Mup. Susc.), read-out: MIC
# [14] = Staphylococcus aureus, S. aureus 101-100 (Mup. Susc.), read-out: MIC
# [15] = Staphylococcus aureus, S. aureus LZ1 (HL Mup rest.), read-out: MIC
# [16] = Staphylococcus aureus, S. aureus LZ6 (HL Mup rest.), read-out: MIC
# [17] = Staphylococcus aureus, S. aureus LZ8 (LL Mup. Rest.), read-out: MIC
# [18] = Staphylococcus aureus, S. aureus LZ9, read-out: MIC
# [19] = Staphylococcus aureus, S. aureus LZ10, read-out: MIC
# [20] = Staphylococcus aureus, S. aureus Miles Hall, read-out: MIC
# [21] = Staphylococcus aureus, S. aureus Oxford, read-out: MIC
# [22] = Staphylococcus aureus, all S. aureus strains of Table 1, read-out: MIC 90
# [23] = all S. aureus isolates of Table 6
compound,measurement,setting,value
"O=c1cc(NC[C@H]2CCC[C@@H]2NCc2ccc(Cl)c(Cl)c2)[nH]c2ccccc12 [MRSi cmpd 3, 2-{[(1R, 2S)-2-(3,4-Dichlorobenzylamino)cyclopentylmethyl]amino}-1H-quinolin-4-one]",MIC,[1],0.03 µg/mL
same,MIC,"[2]; ATCC 51299 / VRE, E. faecalis ATCC 51299 (VRE)",0.5 µg/mL
same,MIC,[2]; E. faecalis 1,0.12 µg/mL
same,MIC,[2]; E. faecalis 7,0.5 µg/mL
same,MIC,[3]; [4],4 µg/mL
same,MIC,[3]; [5],4 µg/mL
same,MIC,[3]; [6],1 µg/mL
same,MIC,[3]; [7],2 µg/mL
same,MIC,[3]; [8],4 µg/mL
same,MIC,[3]; [9],4 µg/mL
same,MIC,[3]; [10],2 µg/mL
same,MIC,[3]; [11],1 µg/mL
same,MIC,[3]; [12],4 µg/mL
same,MIC,[3]; [13],2 µg/mL
same,MIC,[3]; [14],2 µg/mL
same,MIC,[3]; [15],2 µg/mL
same,MIC,[3]; [16],2 µg/mL
same,MIC,[3]; [17],4 µg/mL
same,MIC,[3]; [18],2 µg/mL
same,MIC,[3]; [19],2 µg/mL
same,MIC,[3]; [20],2 µg/mL
same,MIC,[3]; [21],2 µg/mL
same,MIC90,[3]; [22],4 µg/mL
same,MIC Range,[3]; all S. aureus strains of Table 1 (mupirocin-susceptible and -resistant),1 to 4 µg/mL
Cc1onc(-c2ccccc2)c1C(=O)N[C@@H]1C(=O)N2[C@@H]1SC(C)(C)[C@@H]2C(=O)O [Oxacillin],MIC,[3]; [4],4 µg/mL
same,MIC,[3]; [5],> 64 µg/mL
same,MIC,"[3]; Staphylococcus aureus, NRS 1 / VISA, VISA, S. aureus NRS1 (Mu50), read-out: MIC",> 64 µg/mL
same,MIC,"[3]; Staphylococcus aureus, NRS 3 / VISA, VISA, S. aureus NRS3 (HIP5827), read-out: MIC",> 64 µg/mL
same,MIC,"[3]; Staphylococcus aureus, NRS 4 / VISA, VISA, S. aureus NRS4 (HIP5836), read-out: MIC",64 µg/mL
same,MIC,"[3]; Staphylococcus aureus, NRS 18 / VISA, VISA, S. aureus NRS18 (HIP06854), read-out: MIC",2 µg/mL
same,MIC,"[3]; Staphylococcus aureus, NRS 24 / VISA, VISA, S. aureus NRS24 (HIP09143), read-out: MIC",32 µg/mL
same,MIC,"[3]; Staphylococcus aureus, NRS 49 / VISA, VISA, S. aureus NRS49 (Korea), read-out: MIC",> 64 µg/mL
same,MIC,"[3]; Staphylococcus aureus, NRS54, Table 6, high-level mupirocin-resistant S. aureus NRS54, read-out: MIC",> 64 µg/mL
same,MIC,"[3]; Staphylococcus aureus, NRS 54 / VISA, VISA, S. aureus NRS54 (Brazil), read-out: MIC",> 64 µg/mL
same,MIC,"[3]; Staphylococcus aureus, NRS 56 / VISA, VISA, S. aureus NRS56 (Brazil), read-out: MIC",> 64 µg/mL
same,MIC,[3]; [6],0.12 µg/mL
same,MIC,"[3]; Staphylococcus aureus, NRS107, Table 6, high-level mupirocin-resistant S. aureus NRS107, read-out: MIC",0.12 µg/mL
same,MIC,"[3]; Staphylococcus aureus, NRS127, Table 6, low-level mupirocin-resistant S. aureus NRS127, read-out: MIC",64 µg/mL
same,MIC,[3]; [7],16 µg/mL
same,MIC,[3]; [8],> 64 µg/mL
same,MIC,[3]; [9],> 64 µg/mL
same,MIC,[3]; [10],> 64 µg/mL
same,MIC,[3]; [11],0.25 µg/mL
same,MIC,[3]; [12],> 64 µg/mL
same,MIC,[3]; [13],> 64 µg/mL
same,MIC,[3]; [14],16 µg/mL
same,MIC,[3]; [15],> 64 µg/mL
same,MIC,[3]; [16],> 64 µg/mL
same,MIC,[3]; [17],> 64 µg/mL
same,MIC,[3]; [18],> 64 µg/mL
same,MIC,[3]; [19],> 64 µg/mL
same,MIC,[3]; [20],0.25 µg/mL
same,MIC,[3]; [21],0.015 µg/mL
same,MIC,"[3]; Staphylococcus aureus, Table 6, S. aureus (mupirocin-susceptible) 010-100, read-out: MIC",8 µg/mL
same,MIC,"[3]; Staphylococcus aureus, Table 6, S. aureus (mupirocin-susceptible) 087-2789, read-out: MIC",> 64 µg/mL
same,MIC,"[3]; Staphylococcus aureus, Table 6, S. aureus (mupirocin-susceptible) LZ9, read-out: MIC",> 64 µg/mL
same,MIC,"[3]; Staphylococcus aureus, Table 6, S. aureus (mupirocin-susceptible) LZ10, read-out: MIC",> 64 µg/mL
same,MIC,"[3]; Staphylococcus aureus, Table 6, high-level mupirocin-resistant S. aureus 010-420, read-out: MIC",8 µg/mL
same,MIC,"[3]; Staphylococcus aureus, Table 6, high-level mupirocin-resistant S. aureus 25-670, read-out: MIC",> 64 µg/mL
same,MIC,"[3]; Staphylococcus aureus, Table 6, high-level mupirocin-resistant S. aureus 87-2797, read-out: MIC",> 64 µg/mL
same,MIC,"[3]; Staphylococcus aureus, Table 6, high-level mupirocin-resistant S. aureus 1079101, read-out: MIC",0.25 µg/mL
same,MIC,"[3]; Staphylococcus aureus, Table 6, high-level mupirocin-resistant S. aureus LZ1, read-out: MIC",> 64 µg/mL
same,MIC,"[3]; Staphylococcus aureus, Table 6, high-level mupirocin-resistant S. aureus LZ6, read-out: MIC",> 64 µg/mL
same,MIC,"[3]; Staphylococcus aureus, Table 6, low-level mupirocin-resistant S. aureus 014-354, read-out: MIC",> 64 µg/mL
same,MIC,"[3]; Staphylococcus aureus, Table 6, low-level mupirocin-resistant S. aureus 031-1334, read-out: MIC",64 µg/mL
same,MIC,"[3]; Staphylococcus aureus, Table 6, low-level mupirocin-resistant S. aureus 036-1298, read-out: MIC",8 µg/mL
same,MIC,"[3]; Staphylococcus aureus, Table 6, low-level mupirocin-resistant S. aureus 1081148, read-out: MIC",8 µg/mL
same,MIC,"[3]; Staphylococcus aureus, Table 6, low-level mupirocin-resistant S. aureus LZ8, read-out: MIC",> 64 µg/mL
same,MIC,"[3]; Staphylococcus aureus, Table 6, low-level mupirocin-resistant S. aureus Miles Hall, read-out: MIC",0.12 µg/mL
same,MIC50,"[3]; Staphylococcus aureus, all S. aureus isolates of Table 6, read-out: MIC50",> 64 µg/mL
same,MIC90,"[3]; Staphylococcus aureus, all S. aureus isolates of Table 6, read-out: MIC90",> 64 µg/mL
same,MIC90,[3]; [22],> 64 µg/mL
Gentamicin,MIC,[3]; S. aureus 10-420 (LL Mup. Rest.),64 µg/mL
same,MIC,[3]; S. aureus 14-354 (LL Mup. Rest.),>64 µg/mL
same,MIC,[3]; S. aureus 25-670 (HL Mup. Rest.),>64 µg/mL
same,MIC,[3]; S. aureus 31-1334 (LL Mup Rest.),64 µg/mL
same,MIC,[3]; S. aureus 36-1298 (LL Mup. Rest.),0.5 µg/mL
same,MIC,[3]; S. aureus 87-2797 (HL Mup. Rest.),0.25 µg/mL
same,MIC,[3]; S. aureus 87-2797 (Mup. Susc.),0.25 µg/mL
same,MIC,[3]; S. aureus 101-100 (Mup. Susc.),0.12 µg/mL
same,MIC,[3]; S. aureus ATCC 43300 (ORSA),4 µg/mL
same,MIC,[3]; S. aureus LZ1 (HL Mup rest.),0.5 µg/mL
same,MIC,[3]; S. aureus LZ6 (HL Mup rest.),0.25 µg/mL
same,MIC,[3]; S. aureus LZ8 (LL Mup. Rest.),64 µg/mL
same,MIC,[3]; S. aureus LZ9,64 µg/mL
same,MIC,[3]; S. aureus LZ10,64 µg/mL
same,MIC,[3]; S. aureus Miles Hall,0.5 µg/mL
same,MIC,[3]; S. aureus NRS1 (VISA),>64 µg/mL
same,MIC,[3]; S. aureus NRS107 (HL Mup rest.),0.25 µg/mL
same,MIC,[3]; S. aureus Oxford,0.5 µg/mL
same,MIC90,[3]; all S. aureus strains of Table 1,>64 µg/mL
"N-(4-bromo-5-(1-fluorovinyl)-3-methylthiophen-2-ylmethyl)-N′(1H-quinolin-4-one)propane-1,3-diamine Mupirocinate [MRSi Cmpd 5 mupirocinate]",MIC50,[3]; [23],0.12 µg/mL
same,MIC90,[3]; [23],1 µg/mL
